Test results as given in ChEMBL document CHEMBL1154294, “An approach to the site-selective diversification of apoptolidin A with peptide-based catalysts” (J Nat Prod, 2009).
pEC50, pIC50: −log10 of the molar value.

Assays:
[1] = Antiproliferative activity against rat 3Y1 cells after 3 days by tetrazolium based cell counting assay
[2] = Antiproliferative activity against Adenovirus type 12 E1A transformed rat 3Y1cells after 3 days by tetrazolium based cell counting assay; conditions: 72 h
[3] = target: ATP synthase subunit beta, mitochondrial (Saccharomyces cerevisiae S288c, UniProt P00830); test: Inhibition of yeast mitochondrial F0F1-ATPase
NCI-H292 = test: Cytotoxicity activity in human NCI-H292 cells after 48 hrs by thiazolyl blue tetrazolium bromide assay; assay type: functional, cell-based; conditions: NCI-H292, 48 h

Sequence of ATP synthase subunit beta, mitochondrial (P00830 whole entry): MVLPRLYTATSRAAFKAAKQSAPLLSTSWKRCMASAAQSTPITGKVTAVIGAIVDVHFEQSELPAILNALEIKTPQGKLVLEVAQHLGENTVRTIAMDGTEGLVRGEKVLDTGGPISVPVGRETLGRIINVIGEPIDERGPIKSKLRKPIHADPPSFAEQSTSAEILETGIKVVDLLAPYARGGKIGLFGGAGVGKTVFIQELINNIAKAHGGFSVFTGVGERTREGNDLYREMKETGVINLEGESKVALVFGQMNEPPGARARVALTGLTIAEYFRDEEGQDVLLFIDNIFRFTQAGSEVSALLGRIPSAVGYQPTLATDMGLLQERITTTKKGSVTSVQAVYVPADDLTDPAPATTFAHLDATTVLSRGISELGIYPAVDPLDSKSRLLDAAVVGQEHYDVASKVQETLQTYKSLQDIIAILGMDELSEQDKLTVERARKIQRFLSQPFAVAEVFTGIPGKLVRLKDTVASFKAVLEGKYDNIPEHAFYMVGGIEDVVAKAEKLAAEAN

pIC50 [3] | SMILES | GI50 at 72 h [1] [nM] | GI50 [2] [nM] | pEC50 (NCI-H292)
6.52 | COC[C@@H](CC1O[C@@](O)([C@H](O)C2CC(=O)/C(C)=C/C(C)=C/C(C)=C/[C@@H](C)[C@H](O[C@@H]3O[C@@H](C)[C@H](OC)[C@@H](O)[C@@H]3OC(=O)c3ccccc3)/C=C/C(C)=C/CC[C@H](O)[C@@H](OC)C2)[C@H](C)[C@@H](O)[C@H]1C)O[C@H]1C[C@](C)(O)[C@@H](O[C@H]2C[C@@H](OC)[C@H](O)[C@@H](C)O2)[C@H](C)O1 (some centres not stated) | > 1000 | 3.6 | 
6.10 | COC[C@@H](CC1O[C@@](O)([C@H](O)C2CC(=O)/C(C)=C/C(C)=C/C(C)=C/[C@@H](C)[C@H](O[C@@H]3O[C@@H](C)[C@H](OC)[C@@H](O)[C@@H]3O)/C=C/C(C)=C/CC[C@H](O)[C@@H](OC)C2)[C@H](C)[C@@H](O)[C@H]1C)O[C@H]1C[C@](C)(O)[C@@H](O[C@H]2C[C@@H](OC)[C@H](OC(C)=O)[C@@H](C)O2)[C@H](C)O1 (some centres not stated) | > 1000 | 9.8 | 
6.40 | COC[C@@H](CC1O[C@@](O)([C@H](O)C2CC(=O)/C(C)=C/C(C)=C/C(C)=C/[C@@H](C)[C@H](O[C@@H]3O[C@@H](C)[C@H](OC)[C@@H](OC(C)=O)[C@@H]3O)/C=C/C(C)=C/CC[C@H](O)[C@@H](OC)C2)[C@H](C)[C@@H](O)[C@H]1C)O[C@H]1C[C@](C)(O)[C@@H](O[C@H]2C[C@@H](OC)[C@H](O)[C@@H](C)O2)[C@H](C)O1 (some centres not stated) | > 1000 | 2.7 | 
5.96 | COC[C@@H](CC1O[C@@](O)([C@H](OC(C)=O)C2CC(=O)/C(C)=C/C(C)=C/C(C)=C/[C@@H](C)[C@H](O[C@@H]3O[C@@H](C)[C@H](OC)[C@@H](O)[C@@H]3O)/C=C/C(C)=C/CC[C@H](O)[C@@H](OC)C2)[C@H](C)[C@@H](O)[C@H]1C)O[C@H]1C[C@](C)(O)[C@@H](O[C@H]2C[C@@H](OC)[C@H](O)[C@@H](C)O2)[C@H](C)O1 (some centres not stated) | > 1000 | 11 | 
5.55 | COC[C@@H](CC1O[C@@](O)([C@H](OC)C2CC(=O)/C(C)=C/C(C)=C/C(C)=C/[C@@H](C)[C@H](O[C@@H]3O[C@@H](C)[C@H](OC)[C@@H](O)[C@@H]3O)/C=C/C(C)=C/CC[C@H](O)[C@@H](OC)C2)[C@H](C)[C@@H](O)[C@H]1C)O[C@H]1C[C@](C)(O)[C@@H](O[C@H]2C[C@@H](OC)[C@H](O)[C@@H](C)O2)[C@H](C)O1 (some centres not stated) | > 1000 | 12 | 
6.10 | COC[C@@H](CC1O[C@@](O)([C@H](O)C2CC(=O)/C(C)=C/C(C)=C/C(C)=C/[C@@H](C)[C@H](O[C@@H]3O[C@@H](C)[C@H](OC)[C@@H](O)[C@@H]3O)/C=C/C(C)=C/CC[C@H](OC(C)=O)[C@@H](OC)C2)[C@H](C)[C@@H](O)[C@H]1C)O[C@H]1C[C@](C)(O)[C@@H](O[C@H]2C[C@@H](OC)[C@H](O)[C@@H](C)O2)[C@H](C)O1 (some centres not stated) | > 1000 | 56 | 

More lines, now with the values behind:

SMILES | pIC50 [3] | GI50 at 72 h [1] [nM] | GI50 [2] [nM] | pEC50 (NCI-H292)
COC[C@@H](CC1O[C@@](O)([C@H](O)C2CC(=O)/C(C)=C/C(C)=C/C(C)=C/[C@@H](C)[C@H](O[C@@H]3O[C@@H](C)[C@H](OC)[C@@H](O)[C@@H]3O)/C=C/C(C)=C/CC[C@H](O)[C@@H](OC)C2)[C@H](C)[C@@H](OC(C)=O)[C@H]1C)O[C@H]1C[C@](C)(O)[C@@H](O[C@H]2C[C@@H](OC)[C@H](OC(C)=O)[C@@H](C)O2)[C@H](C)O1 (some centres not stated) | 6.40 | > 600 | 9.5 | 
COC[C@@H](CC1O[C@@](O)([C@H](O)C2CC(=O)/C(C)=C/C(C)=C/C(C)=C/[C@@H](C)[C@H](O[C@@H]3O[C@@H](C)[C@H](OC)[C@@H](O)[C@@H]3OC(C)=O)/C=C/C(C)=C/CC[C@H](O)[C@@H](OC)C2)[C@H](C)[C@@H](O)[C@H]1C)O[C@H]1C[C@](C)(O)[C@@H](O[C@H]2C[C@@H](OC)[C@H](O)[C@@H](C)O2)[C@H](C)O1 (some centres not stated) |  |  |  | 7.22
COC[C@@H](CC1O[C@@](O)([C@H](OC(C)=O)C2CC(=O)/C(C)=C/C(C)=C/C(C)=C/[C@@H](C)[C@H](O[C@@H]3O[C@@H](C)[C@H](OC)[C@@H](O)[C@@H]3OC(C)=O)/C=C/C(C)=C/CC[C@H](O)[C@@H](OC)C2)[C@H](C)[C@@H](O)[C@H]1C)O[C@H]1C[C@](C)(O)[C@@H](O[C@H]2C[C@@H](OC)[C@H](OC(C)=O)[C@@H](C)O2)[C@H](C)O1 (some centres not stated) |  |  |  | 7.32
COC[C@@H](CC1O[C@@](O)([C@H](OC(C)=O)C2CC(=O)/C(C)=C/C(C)=C/C(C)=C/[C@@H](C)[C@H](O[C@@H]3O[C@@H](C)[C@H](OC)[C@@H](OC(C)=O)[C@@H]3OC(C)=O)/C=C/C(C)=C/CC[C@H](O)[C@@H](OC)C2)[C@H](C)[C@@H](O)[C@H]1C)O[C@H]1C[C@](C)(O)[C@@H](O[C@H]2C[C@@H](OC)[C@H](O)[C@@H](C)O2)[C@H](C)O1 (some centres not stated) |  |  |  | 7.32
COC[C@@H](CC1O[C@@](O)([C@@H]2OC(=O)/C(C)=C/C(C)=C/C(C)=C/[C@@H](C)[C@H](O[C@@H]3O[C@@H](C)[C@H](OC)[C@@H](O)[C@@H]3O)/C=C/C(C)=C/CC[C@H](O)[C@@H](OC)C[C@@H]2O)[C@H](C)[C@@H](O)[C@H]1C)O[C@H]1C[C@](C)(O)[C@@H](O[C@H]2C[C@@H](OC)[C@H](O)[C@@H](C)O2)[C@H](C)O1 (some centres not stated) [ISOAPOPTOLIDIN] | 4.77 | > 1000 | 9 | 
